Measured values as given in PubChem BioAssay AID248 (DTP/NCI, 2004).
Where “and” joins values, the source holds several entries; their conditions need not be identical. Equal entries are not always repeated. Toxic doses and inconclusive results are not listed. Cut-off read from the data, not from the text of the source: active = T/C of 150% or more; inactive = T/C below 125%.

Test system: L1210 leukemia ip in BDF1 mice, survival T/C
Experiment: NCI In Vivo Anticancer Drug Screen. Data for tumor model L1210 Leukemia (intraperitoneal) in B6D2F1 (BDF1) mice
Conditions: endpoint: mean survival time, higher = longer survival
Method in brief: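 Transplantable tumor model; survival measured in treated vs vehicle control mice. Value = treated/control.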

[1] = dose: 100.0 mg/kg/injection, schedule: Q04DX003 (ip), vehicle: Klucel (hydroxypropylcellulose) (HPC)
[2] = dose: 200.0 mg/kg/injection, schedule: Q04DX003 (ip), vehicle: Klucel (hydroxypropylcellulose) (HPC)
[3] = dose: 400.0 mg/kg/injection, schedule: Q04DX003 (ip), vehicle: Klucel (hydroxypropylcellulose) (HPC)
[4] = dose: 100.0 mg/kg/injection, schedule: Q01DX009 (ip), vehicle: Klucel (hydroxypropylcellulose) (HPC)
[5] = dose: 200.0 mg/kg/injection, schedule: Q01DX009 (ip), vehicle: Klucel (hydroxypropylcellulose) (HPC)
[6] = dose: 100.0 mg/kg/injection, schedule: Q04DX002 (ip), vehicle: Klucel (hydroxypropylcellulose) (HPC)
[7] = dose: 100.0 mg/kg/injection, schedule: Q01DX009 (ip), vehicle: saline
[8] = dose: 100.0 mg/kg/injection, schedule: Q04DX003 (ip), vehicle: saline
[9] = dose: 200.0 mg/kg/injection, schedule: Q01DX009 (ip), vehicle: saline
[10] = dose: 200.0 mg/kg/injection, schedule: Q04DX003 (ip), vehicle: saline
[11] = dose: 400.0 mg/kg/injection, schedule: Q04DX003 (ip), vehicle: saline

Measured: T/C

Cc1ccc(C)c(/C(=N\N=C(N)N)C2CC2)c1
inactive: dose: 15.0 mg/kg/injection, schedule: Q01DX Z (ip), vehicle: methylcellulose (MC) 103 % of control | dose: 30.0 mg/kg/injection, schedule: Q01DX Z (ip), vehicle: methylcellulose (MC) 99 % of control | dose: 30.0 mg/kg/injection, schedule: Q01DX Z (oral), vehicle: methylcellulose (MC) 103 % of control | dose: 60.0 mg/kg/injection, schedule: Q01DX Z (ip), vehicle: methylcellulose (MC) 100 % of control | dose: 60.0 mg/kg/injection, schedule: Q01DX Z (oral), vehicle: methylcellulose (MC) 94 % of control | dose: 120.0 mg/kg/injection, schedule: Q01DX Z (oral), vehicle: methylcellulose (MC) 100 % of control

CCC(C)N=C(N)C(N)=NC(C)CC (stereo not given)
inactive: dose: 100.0 mg/kg/injection, schedule: Q04DX002 (ip), vehicle: saline 103 % of control | dose: 200.0 mg/kg/injection, schedule: Q04DX002 (ip), vehicle: saline 103 % of control

O=[N+]([O-])c1ccc(N/N=C/c2ccc(N(CCO)CCO)cc2)c([N+](=O)[O-])c1
inactive: dose: 25.0 mg/kg/injection, schedule: Q01DX001 (ip), vehicle: saline with Tween-80 88 % of control | dose: 50.0 mg/kg/injection, schedule: Q01DX001 (ip), vehicle: saline with Tween-80 90 % of control | dose: 100.0 mg/kg/injection, schedule: Q01DX001 (ip), vehicle: saline with Tween-80 98 % of control

CC(=O)N1CSCC1C(=O)O (stereo not given)
inactive: [1] 89 % of control | [2] 94 % of control | [3] 91 % of control

c1ccc2c(c1)Cc1c(-c3ccncc3)n[nH]c1-2
inactive: dose: 100.0 mg/kg/injection, schedule: Q04DX003 (ip), vehicle: saline with Tween-80 93 % of control | dose: 200.0 mg/kg/injection, schedule: Q04DX003 (ip), vehicle: saline with Tween-80 96 % of control | dose: 400.0 mg/kg/injection, schedule: Q04DX003 (ip), vehicle: saline with Tween-80 86 % of control

COc1cc2c(cc1OC)C(=O)Cc1ccc3c(c1CN(C)CC2)OCO3
inactive: [4] 95 % of control | [5] 95 % of control

c1cc(C2CO2)ccc1Oc1ccc(C2CO2)cc1 (stereo not given)
inactive: dose: 1.0 mg/kg/injection, schedule: Q01DX Z (ip), vehicle: methylcellulose (MC) 96 % of control | dose: 3.3 mg/kg/injection, schedule: Q01DX Z (ip), vehicle: methylcellulose (MC) 98 % of control | dose: 10.0 mg/kg/injection, schedule: Q01DX Z (ip), vehicle: methylcellulose (MC) 104 % of control | dose: 33.0 mg/kg/injection, schedule: Q01DX Z (ip), vehicle: methylcellulose (MC) 98 % of control | dose: 100.0 mg/kg/injection, schedule: Q01DX Z (ip), vehicle: methylcellulose (MC) 86 % of control

Cc1ccc(S(=O)(=O)NN=C2CCC(C(C)(C)C)CC2)cc1 (stereo not given)
inactive: dose: 100.0 mg/kg/injection, schedule: Q01DX009 (ip), vehicle: saline with Tween-80 88 % of control | dose: 100.0 mg/kg/injection, schedule: Q04DX003 (ip), vehicle: other 91 % of control | dose: 200.0 mg/kg/injection, schedule: Q01DX009 (ip), vehicle: saline with Tween-80 88 % of control | dose: 200.0 mg/kg/injection, schedule: Q04DX003 (ip), vehicle: other 89 % of control | dose: 400.0 mg/kg/injection, schedule: Q01DX009 (ip), vehicle: saline with Tween-80 91 % of control | dose: 400.0 mg/kg/injection, schedule: Q04DX003 (ip), vehicle: other 96 % of control

O=C1CCCCCCCCCCCCCC1
inactive: [6] 102 % of control | dose: 200.0 mg/kg/injection, schedule: Q04DX002 (ip), vehicle: Klucel (hydroxypropylcellulose) (HPC) 102 % of control | dose: 400.0 mg/kg/injection, schedule: Q04DX002 (ip), vehicle: Klucel (hydroxypropylcellulose) (HPC) 102 % of control

NC(=O)N1C(=O)C2C3C=CC(O3)C2C1=O (stereo not given)
inactive: [7] 96 % of control | [8] 98 % of control | [9] 95 % of control | [10] 101 % of control | [11] 101 % of control

OCc1ccc(-c2ccccc2)cc1
inactive: dose: 25.0 mg/kg/injection, schedule: Q04DX003 (ip), vehicle: Klucel (hydroxypropylcellulose) (HPC) 108 % of control | dose: 50.0 mg/kg/injection, schedule: Q01DX005 (ip), vehicle: saline 94 % of control | dose: 50.0 mg/kg/injection, schedule: Q04DX003 (ip), vehicle: Klucel (hydroxypropylcellulose) (HPC) 103 % of control | dose: 100.0 mg/kg/injection, schedule: Q01DX005 (ip), vehicle: saline 112 % of control | [1] 103 % of control | dose: 200.0 mg/kg/injection, schedule: Q01DX005 (ip), vehicle: saline 100 % of control | dose: 400.0 mg/kg/injection, schedule: Q01DX005 (ip), vehicle: saline 102 % of control

Nc1ccc(Nc2ccc(N)cc2)cc1
inactive: dose: 5.0 mg/kg/injection, schedule: Q01DX001 (ip), vehicle: saline 101 % of control | dose: 10.0 mg/kg/injection, schedule: Q01DX001 (ip), vehicle: saline 113 % of control

NC(CCl)=NCC1CCCCCCC1
inactive: dose: 25.0 mg/kg/injection, schedule: Q01DX009 (ip), vehicle: Klucel (hydroxypropylcellulose) (HPC) 103 % of control | dose: 25.0 mg/kg/injection, schedule: Q04DX002 (ip), vehicle: Klucel (hydroxypropylcellulose) (HPC) 100 % of control | dose: 50.0 mg/kg/injection, schedule: Q04DX002 (ip), vehicle: Klucel (hydroxypropylcellulose) (HPC) 107 % of control | [6] 101 % of control and 89 % of control

CCCC1=NNC(=O)C1(Br)Br
inactive: dose: 10.0 mg/kg/injection, schedule: Q01DX001 (ip), vehicle: carboxymethylcellulose (CMC) 97 % of control | dose: 20.0 mg/kg/injection, schedule: Q01DX001 (ip), vehicle: carboxymethylcellulose (CMC) 91 % of control | dose: 40.0 mg/kg/injection, schedule: Q01DX001 (ip), vehicle: carboxymethylcellulose (CMC) 92 % of control | dose: 80.0 mg/kg/injection, schedule: Q01DX001 (ip), vehicle: carboxymethylcellulose (CMC) 97 % of control

O=C1OC(CO)C(OC2OC(CO)C(O)C(O)C2O)C(O)C1O (stereo not given)
inactive: [7] 97 % of control | [9] 98 % of control | dose: 400.0 mg/kg/injection, schedule: Q01DX009 (ip), vehicle: saline 97 % of control

CN(C)CC1C(O)C2CCN1CC2 (stereo not given)
inactive: [8] 103 % of control | [10] 103 % of control

CCCCN(CCCC)S(=O)(=O)CCCC
inactive: [8] 91 % of control | [10] 103 % of control | [11] 94 % of control

NC(=O)CC(NC(=O)OCc1ccccc1)C(N)=O (stereo not given)
inactive: [1] 93 % of control | [2] 87 % of control | [3] 90 % of control

CC1C(C(=O)c2ccc(-c3ccccc3)cc2)N1C(C)(C)C (stereo not given)
inactive: dose: 100.0 mg/kg/injection, schedule: Q01DX001 (ip), vehicle: Klucel (hydroxypropylcellulose) (HPC) 87 % of control | dose: 200.0 mg/kg/injection, schedule: Q01DX001 (ip), vehicle: Klucel (hydroxypropylcellulose) (HPC) 93 % of control | dose: 400.0 mg/kg/injection, schedule: Q01DX001 (ip), vehicle: Klucel (hydroxypropylcellulose) (HPC) 94 % of control

CC(=O)c1ccc(Cc2ccc(C(C)=O)cc2)cc1
inactive: [4] 98 % of control | [5] 98 % of control | dose: 400.0 mg/kg/injection, schedule: Q01DX009 (ip), vehicle: Klucel (hydroxypropylcellulose) (HPC) 106 % of control

CN(C)C(=O)NCc1ccccc1
inactive: [1] 90 % of control | [2] 92 % of control | [3] 98 % of control
